Assay results as given in patent publication US6441134B1, “Isolated Candida albicans oligopeptide transporter gene” (The University of Tennessee Research Corporation, dated 2002).
Non-standard residues stand in square brackets, D forms with d. No end group written: not given here.

Key:
Assay type in all cases: cell-based, Saccharomyces cerevisiae
[1] = system: S. cerevisiae PB1X-9B(pOPT1); details: ammonium sulfate as nitrogen source; 0.38 μmoles per 6 mm disk; 24-48 hr
Description: (§1) S. cerevisiae PB1X-9B is sensitive to the toxic amino acid ethionine Eth) but is resistant to ethionine containing di-, tri-, tetra-, and pentapeptides. Disk sensitivity assays was utilized to determine if cells transformed with pOPT1 were sensitive to toxic peptides and whether this sensitivity was dependent upon nitrogen source.
(§2) Sensitivity to ethionine, a toxic methionine analog, and ethionine-containing peptides was determined by the method described by Island et al. (1987). Cells were grown overnight to exponential phase of growth in SC, washed, and resuspended at 5×10^6 cells /ml in sterile water. One ml of this cell suspension was added to 3 ml molten Noble agar (0.8% final concentration) and overlayed on 20 ml of the same medium used to prepare the inoculum. A disk (6 mm diameter, Difco) was placed on the plate and 0.38 μmoles of the compounds to be tested were applied to the disks. Zones of inhibition were measured after 24-48 hr incubation at 30 iC. Each test comprised at least three independent assays and the results represented in the Tables are means of the values obtained. Maximum variation between the zones of inhibition measured for each test were ^23 mm. A value of 7 mm for the diameter of zone of inhibition represents a minimal growth inhibition value as the disk diameter was 6 mm. Photodocumentation of sensitivity assays was done with a Umax Scanner and processed through Adobe Photoshop.

S. cerevisiae PB1X-9B = test: Sensitivity of untransformed S. cerevisiae PB1X-9B to ethionine and ethionine peptides
Description: as §1
as §2, with “Photodocumentation of sensitivity assays was done with a Umax Scanner and processed through Adobe Photoshop.” left out

[2] = system: S. cerevisiae PB1X-9B(pOPT1); test: Peptide transport assay, accumulation of KLG-[3H]L, PB1X-9B(pOPT1)
Description: (§3) To determine if S. cerevisiae transformants harboring pOPT1 could accumulate a radiolabeled tetrapeptide, uptake assays were performed with the radiolabeled substrate KLG-[^3H]L SEQ ID NO:7 with cells grown to log phase in SC-Ura with either ammonium sulfate or 0.1% proline as a nitrogen source. […] This higher initial rate can be explained by overexpression due to high copy number or alternatively by the lack of requisite regulatory elements which may be absent in the heterologous host.
Uptake of KLG-[^3H]L SEQ ID NO:7 was determined using a protocol for uptake of dipeptides as described by Basrai et al. (1995) with a few modifications. S. cerevisiae cultures were grown overnight to exponential phase in SC-Ura medium. Cells were harvested by centrifugation, and resuspended in 2% glucose at a cell density of 2×10^8 cells/ml. Two hundred and fifty microliters of cell suspension were added to an equal volume of an uptake assay reaction mixture and incubated at 30iC. The final concentrations of the components in the uptake assay solution were: glucose (2%, w/v), 10 mM sodium citrate/potassium phosphate buffer (pH 5.0), and KLG-[^3H]L SEQ ID NO:7 (150 μM; 8.5 mCi/mmol). Competition experiments were done in the presence of either 1.5 mM L, KL, KLG, KLLG SEQ ID NO:6, or KLLLG SEQ ID NO:8. At various time points, 90 μl portions were removed and filtered through a membrane. The yeast cells retained on the filter were washed twice with ice-cold distilled water, once with room temperature distilled water, and the residual radioactivity was measured by liquid scintillation. There was no peptide adsorption to the cell surface or sticking to filters since at 0i C the counts were at background level. The uptake results, calculated on the basis of 50% counting efficiency (determined using L-[^3H]lysine as a standard, and the specific activity of the peptide), were expressed as nmol of peptide uptake per minute per mg cell dry weight.

[3] = system: S. cerevisiae PB1X-9B(pRS202); test: Peptide transport assay, accumulation of KLG-[3H]L, PB1X-9B(pRS202); details: cells grown in SC with ammonium sulfate; 150 μM substrate
Description: as §3
Uptake of KLG-[^3H]L SEQ ID NO:7 was determined using a protocol for uptake of dipeptides as described by Basrai et al. (1995) with a few modifications. S. cerevisiae cultures were grown overnight to exponential phase in SC-Ura medium. Cells were harvested by centrifugation, and resuspended in 2% glucose at a cell density of 2×10^8 cells/ml. […] The yeast cells retained on the filter were washed twice with ice-cold distilled water, once with room temperature distilled water, and the residual radioactivity was measured by liquid scintillation. […] The uptake results, calculated on the basis of 50% counting efficiency (determined using L-[^3H]lysine as a standard, and the specific activity of the peptide), were expressed as nmol of peptide uptake per minute per mg cell dry weight.

Row | Compound | zone of growth inhibition [1] [mm] | sensitivity / resistance of the strain (S. cerevisiae PB1X-9B) | uptake rate of KLG-[3H]L, no competitor ([2]; SC-Ura with ammonium sulfate, 150 μM substrate, best fit of slope over 12 min) | initial rate of uptake compared to C. albicans SC5314 ([2]; both grown in SC with ammonium sulfate) | uptake rate of radiolabeled tetrapeptide ([2]; cells grown in SC with ammonium sulfate, 150 μM substrate) | initial uptake rate, PB1X-9B(pOPT1) relative to PB1X-9B(pRS202) ([2]; growth media with proline as nitrogen source) [times] | uptake of radiolabeled tetrapeptide [3]
1 | CCSCC[C@H](N)C(=O)O [ethionine, Ethionine] | 33 | sensitive |  |  |  |  | 
2 | Lys-Leu-Gly-[^3H]Leu (KLG[3H‑Leu]) [KLG-[^3H]L] |  |  | 0.24 nm/min/mg of dry weight | higher initial rate of uptake | significant uptake rate | 2.5 | no uptake
